pIC50: −log10 of the molar value. Like-named read-outs stand apart in the source and are kept apart here.
What was measured:
THP-1 cells = experiment: Inhibition of LPS-induced IL-6 release in THP-1 cells, concentration series; format: cell-based; details: Homo sapiens, 100 ng/ml LPS, 0.5% FBS, supernatants at 48 hr, read-out: IC50 for inhibition of LPS-induced IL-6 secretion
Procedure: (§1) THP-1 cells at 3.4×10^5/ml were cultured in 96-well plates in 0.5% FBS/RPMI 1640, in the absence or presence of 100 ng/ml LPS, plus or minus tipifarnib (starting from 5 μM, followed by 3-fold series dilution). The concentrations of tipifarnib were: 5 μM, 1.67 μM, 0.56 μM, 0.19 μM and 0.06 μM. Supernatants were collected at 48 hr. IL6 was quantified using ELISA kit from R&D Systems.
as §1, with “Medium components were certified to contain less than 0.3 endotoxin units/ml. THP-1” for “THP-1”, “LPS” for “LPS,”, “tested” for “quantified”

cachexia = details: US 2004/0157773, WO 02/085364; cited from earlier work
human PBMC = experiment: LPS-induced cytokine production in human PBMC; format: cell-based
Procedure: (§2) Human IL-6, IL18, IL1β, MCP-1, MMP-9, and mouse IL-6, IL18, TNFα, MCP-1 and IL-1β were measured with ELISA kits (R&D Systems) according to the manufacturer's instructions.
Heparinized human blood (25 ml) from a healthy donor was overlaid into a 50 ml conical tubes containing 20 ml Ficoll-Paque, and centrifuged for 20 min at 2000 rpm at room temperature and then allowed to stop without using the brake on the centrifuge. The upper layer was aspirated, leaving the mononuclear cell layer undisturbed at the interface. Cells were carefully transferred the to a new […] conical tube. The conical tube was filled with PBS, mixed and centrifuged at 1500 rpm for 15 minutes at room temperature. The supernatant was carefully and completely removed. The cell pellet was resupended in 50 ml of PBS and centrifuged at 1500 rpm for 5 minutes. This wash step was repeated once more. The cells were counted and resuspended cells at 1.7×10^6/ml in low-endotoxin RPMI1640/10% FBS.
Human PBMC (180 μl at 1.7×10^6/ml) were pipetted into each well of a 96-well plate. […] Cells were incubated at 37° C., under 5% CO2 for 1 hour, then 10 μl LPS (diluted in medium) were added per well to reach a final concentration of 10 ng/ml. Cells were cultured at 37° C., under 5% CO2. Supernatants were collected at 16 hours, 24 hours and 40 hours of LPS treatment, and IL-6 secretion was quantified.

[1] = cited from earlier work
[2] = system: collagen-induced arthritis; details: WO 00/01386; cited from earlier work
[3] = system: dextran sodium sulphate-induced colitis; details: WO 02/43733; cited from earlier work
BALB/c mice = experiment: LPS-induced cytokine production in vivo (murine model of LPS-induced inflammation); details: for inhibition at 50 mg/kg: Mus musculus; for MCP-1 production: tipifarnib
Procedure: The experiments were performed on female BALB/c mice (6-7 week old; Charles River Laboratories, Inc. MA). […] The control mice received the vehicle (20% cyclodextran) only. 20 μg LPS (Sigma), diluted in PBS, was injected into each mouse intraperitoneally. Blood samples were collected either by eye bleeding or cardiac puncture at 1 and 2 hours after LPS injection in one experiment, and at 2 and 3 hours after LPS injection in a second experiment. Plasma samples were collected by centrifugation, and stored at ≦−20° C. before being tested for cytokines using individual ELISA kits or Luminex analysis (see below).
as §2
Samples were tested for cytokines using the Bio-plex cytokine assay kit (Bio-Rad Laboratories, Inc.) according to the manufacturer's instructions. Briefly, 50 μL anti-cytokine antibody conjugated beads were added to wells of a filter plate pre-equilibrated with assay buffer. The beads were washed, then 50 μL of undiluted cell culture supernatant or 4-fold diluted plasma samples were added and incubated for 2 hours. Biotinylated anti-cytokine antibody (25 μL) was added to each well and the plate was incubated with shaking for 1.5 hours. Streptavidin-PE (50 μL) was added to each well and the plate was incubated with shaking for 45 min. between incubations, wells were washed 3 times with 100 μL wash buffer and unbound analytes were filtered using a vacuum manifold. Following the last wash step, 125 μL of assay buffer was added to each well and the plate was placed on a shaker for 10 min. The plate was read on a Luminex^100 instrument (Luminex Corporation, Austin, Tex.) according to the manufacturer's instructions. The concentration of cytokine was determined from a standard curve assayed at the same time.

[4] = second experiment, 3 hours (results not shown)

## Cn1cncc1C(N)(c1ccc(Cl)cc1)c1ccc2c(c1)c(-c1cccc(Cl)c1)cc(=O)n2C (single isomer, unassigned; (+)) [tipifarnib, (+)-6-[amino(4-chlorophenyl)(1-methyl-1H-imidazol-5-yl)methyl]-4-(3-chlorophenyl)-1-methyl-2(1H)-quinolinone]
THP-1 cells
  pIC50: ~6.00
cachexia
  cachexia: inhibition
Human PBMC; tipifarnib 2 μM, LPS 10 ng/ml, 10% FBS
  LPS-induced IL-6 production: no effect
Human PBMC; tipifarnib 5 μM, 24 hours, not statistically significant (P=0.104)
  IL-6 mean value lower than in absence of compound: approximately 40%
Human PBMC; tipifarnib 5 μM, after 16 and 40 hours
  LPS-induced IL-6 production: highly significant inhibition
[1]; at 300 mg twice a day (Karp, Lancet et al. 2001)
  plasma levels: approximately 2 μM
[1]; in a number of studies (Head and Johnston 2003)
  maximum tolerated dose: 300 mg twice a day
[2]
  disease scores: reduction of disease scores
[3]
  disease scores: reduction of disease scores
BALB/c mice; 50 mg/kg oral 24, 17 and 1 hour before LPS 20 μg i.p., plasma at 1 and 2 hours
  LPS-induced TNF-α production: highly significant inhibition
BALB/c mice; 50 mg/kg oral before LPS, 2 hours, first experiment, read-out: inhibition of MIP-1α production
  inhibition at 50 mg/kg: ~50%
BALB/c mice; tipifarnib 50 mg/kg oral before LPS, after 3 hours, read-out: inhibition of IL-6 production
  inhibition at 50 mg/kg: ~50%
BALB/c mice; results not shown
  LPS-induced IL-8: No effects
  LPS-induced RANTES: No effects
BALB/c mice; [4]
  IL12-p40 induction by LPS: inhibited
  IL12-p70 induction by LPS: inhibited
BALB/c mice; tipifarnib 50 mg/kg oral before LPS, after 3 hours
  IL-1β production: almost complete inhibition
BALB/c mice; 2 hours
  MCP-1 production: significant inhibition
BALB/c mice; 3 hours
  MCP-1 production: a decrease that did not reach statistical significance
